Measurements: patent US20050143463A1, “Method of inhibiting angiogenesis” (THE QUEEN ELIZABETH HOSPITAL RESEARCH FOUNDATION INC., priority 2002, published 2005)

Tested on: chicken chorioallantoic membrane (CAM)
Test: Chicken chorioallantoic membrane (CAM) assay for angiogenesis
Assay type: in vivo
Details: for Vein length (%) / Artery length (%) / Total vessel length (%) / Vein Diameter (%): % of control, Mean ± SEM
Protocol: Fertilised chicken eggs (HiChick Breeding Co, Kapunda, South Australia) were incubated for three days at 38° C. On Day 3 the embryos were cracked out of the egg and into a cup made of plastic piping, with plastic film stretched over the top to form a hammock for the egg to be suspended in. Two ml of DMEM containing penicillin and streptomycin was added to each cup prior to the egg being added. A petri dish on the top maintained sterility. Incubation continued in a humidified 37° C. incubator.
On Day 4 the chorioallantoic membrane (CAM) begins to grow, and pictures were taken of each embryo at ×5 to measure the CAM area using image analysis software (Video Pro 32, Leading Edge Pty Ltd, South Australia).
Embryos were then grouped according to their CAM area, with a control embryo in each for comparison. Grouping is critical as in these early developmental stages changes in the CAM growth are dramatic. Relatively small differences in size on Day 4 translate to large differences in the CAM on Day 5. Treatment was applied in methylcellulose discs, which were dried under vacuum overnight. The methylcellulose discs were applied to the top of the CAM, and at the beginning of treatment were at least three to four-fold bigger than the CAM area, meaning treatment covered the entire CAM surface.
On Day 5 skim milk with contrast medium was injected into the CAM. Pictures were then taken at various levels of magnification up to ×63. Quantitative measurements were made from ×5 pictures. CAM area, and vein and artery lengths were measured using image analysis (Video Pro 32, Leading Edge Pty Ltd, South Australia). Relative vessel lengths were then calculated as the total length/CAM area. Statistical analysis was made using SigmaStat and OneWay ANOVA with p<0.05 as the level of significance.

`CCC(C)CCCCCCCCCCC(=O)O` (centres unmarked) [12-MTA, 12-methyltetradecanoic acid] was tested, and the “Vein length (%)” value (25 nmol on methylcellulose disc) was 82.1 ± 22.9%, the “Artery length (%)” value (25 nmol) was 81.8 ± 11.6% and the “Total vessel length (%)” value (25 nmol) was 79.8 ± 15.0%. For the same compound, the “Vein Diameter (%)” value (25 nmol) was 89.3 ± 25.2%, the “Vein length (%)” value (50 nmol on methylcellulose disc) was 74.4 ± 20.8% and the “Artery length (%)” value (50 nmol) was 78.8 ± 12.2%. The “Total vessel length (%)” value (50 nmol) was 74.9 ± 14.7%, the “Vein Diameter (%)” value (50 nmol) was 59.1 ± 11.2% and the “Vein length (%)” value (100 nmol on methylcellulose disc) was 46.0 ± 8.7^1%. For the same compound, the “Artery length (%)” value (100 nmol) was 63.8 ± 4.0^1%, the “Total vessel length (%)” value (100 nmol) was 54.9 ± 4.3^1% and the “Vein Diameter (%)” value (100 nmol) was 45.9 ± 10.0^1%. The “number of branching capillaries sprouting from the main vessels” value (500 nmol) was “reduction”, the vessel area (500 nmol) was “diminished” and the “cytotoxicity to the embryo” value (chicken embryo, CAM assay) was “not cytotoxic”. The “inhibition of angiogenesis in the CAM assay, dose dependent (in words)” value (dose dependent manner) was “inhibit angiogenesis” and the “effect of the lowest dose on vein length, artery length, total vessel length and vein diameter (in words)” value (lowest dose (25 nmol)) was “inhibited”.
